Patent publication US12543738B2 (Bayer Aktiengesellschaft, priority 2020, dated 2026)

What was measured:
[1] = tested on: Colletotrichum lindemuthianum; test: In vivo preventive test on Colletotrichum lindemuthianum (leaf spot on bean); settings: 168 h, 500 ppm of active ingredient, preventive spray on bean, evaluated 7 days after inoculation, read-out: efficacy
Description: (§1) The active ingredients were made soluble and homogenized in a mixture of Dimethyl sulfoxide/Acetone//Tween® 80 and then diluted in water to the desired concentration. The young plants of bean were treated by spraying the active ingredient prepared as described above. Control plants were treated only with an aqueous solution of Acetone/Dimethyl sulfoxide/Tween® 80. After 24 hours, the plants were contaminated by spraying the leaves with an aqueous suspension of Colletotrichum lindemuthianum spores.

Septoria tritici = Septoria tritici in vitro cell test; assay type: cell-based; settings: Zymoseptoria tritici, 168 h; 20 ppm of active ingredient; liquid culture, 7 days incubation; read-out: efficacy (inhibition of fungal growth)
Description: • Solvent: DMSO • Culture medium: 1 g KH2PO4 (VWR), 1 g K2HPO4 (VWR), 0.5 g Urea (VWR), 3 g KNO3 (Prolabo), 10 g saccharose (VWR), 0.5 g MgSO4, 7H2O (Sigma), 0.07 g CaCl2, 2H2O (Prolabo), 0.2 mg MnSO4, H2O (Sigma), 0.6 mg CuSO4, 5H2O (Sigma), 7.9 mg ZnSO4, 7H2O (Sigma), 0.1 mg H3BO3 (Merck), 0.14 mg NaMoO4, 2H2O (Sigma), 2 mg thiamine (Sigma), 0.1 mg biotine (VWR), 4 mg FeSO4, 7H2O (Sigma), QSP 1 liter • Inoculum: spore suspension Fungicides were solubilized in DMSO and the solution used to prepare the required range of concentrations. […] A spore suspension of S. tritici was prepared and diluted to the desired spore density. Fungicides were evaluated for their ability to inhibit spore germination and mycelium growth in liquid culture assay. The compounds were added in the desired concentration to the culture medium with spores. […] Inhibition of fungal growth was determined by comparing the absorbance values in wells containing the fungicides with the absorbance in control wells without fungicides.

Alternaria alternata = Alternaria alternata in vitro cell test; assay type: cell-based; settings: 120 h, 20 ppm of active ingredient, liquid culture, 5 days incubation, read-out: efficacy (inhibition of fungal growth)
Description: (§2) • Solvent: DMSO • Culture medium: 14.6 g anhydrous D-glucose (VWR), 7.1 g Mycological Peptone (Oxoid), 1.4 g granulated Yeast Extract (Merck), QSP 1 liter • Inoculum: spores suspension Fungicides were solubilized in DMSO and the solution used to prepare the required range of concentrations. […] A spore suspension of A. alternata was prepared and diluted to the desired spore density. Fungicides were evaluated for their ability to inhibit spore germination and mycelium growth in liquid culture assay. The compounds were added in the desired concentration to the culture medium with spores. After 5 days incubation, fungi-toxicity of compounds was determined by spectrometric measurement of mycelium growth. Inhibition of fungal growth was determined by comparing the absorbance values in wells containing the fungicides with the absorbance in control wells without fungicides.

Sphaerotheca fuliginea = test: In vivo preventive test on Sphaerotheca fuliginea (powdery mildew on cucurbits); settings: Podosphaera fuliginea, 192 h; 500 ppm of active ingredient; preventive spray on gherkin; evaluated 8 days after inoculation; read-out: efficacy
Description: as §1, with “gherkin” for “bean”, “Sphaerotheca fuliginea” for “Colletotrichum lindemuthianum”

Botrytis cinerea = test: In vivo preventive test on Botrytis cinerea (grey mould); settings: 500 ppm of active ingredient, preventive spray on gherkin or cabbage, evaluated 4 to 5 days after inoculation, read-out: efficacy
Description: as §1, with “gherkin or cabbage” for “bean”, “Botrytis cinerea” for “Colletotrichum lindemuthianum”

Alternaria brassicae = test: In vivo preventive test on Alternaria brassicae (leaf spot on radish or cabbage); settings: 144 h, 500 ppm of active ingredient, preventive spray on radish or cabbage, evaluated 6 days after inoculation, read-out: efficacy
Description: as §1, with “radish or cabbage” for “bean”, “Alternaria brassicae” for “Colletotrichum lindemuthianum”

Pyricularia Oryzae = test: microbe, parasite or virus in culture; assay type: cell-based; settings: 120 h, read-out: efficacy (inhibition of fungal growth)
[2] = Measurement of LogP values by HPLC on reversed phase columns (EEC directive 79/831 Annex V.A8); assay type: physicochemical; settings: method [a]: LC-UV, acidic range, 0.1% formic acid in water and acetonitrile; compounds of formula (I-1), Table 1
Description: Calibration was done with straight-chain alkan2-ones (with 3 to 16 carbon atoms) with known LogP values (measurement of LogP values using retention times with linear interpolation between successive alkanones). Lambda-max-values were determined using UV-spectra from 200 nm to 400 nm and the peak values of the chromatographic signals

Pyrenophora teres = test: In vivo preventive test on Pyrenophora teres (net blotch on barley); settings: 240 h, 500 ppm of active ingredient, preventive spray on barley, evaluated 10 days after inoculation, read-out: efficacy
Description: as §1, with “barley” for “bean”, “Pyrenophora teres” for “Colletotrichum lindemuthianum”

[3] = tested on: Colletotrichum lindemuthianum; test: Colletotrichum lindemuthianum in vitro cell test; assay type: cell-based; settings: 144 h, 20 ppm of active ingredient, liquid culture, 6 days incubation, read-out: efficacy (inhibition of fungal growth)
Description: as §2, with “of C. lindemuthianum” for “of A. alternata”, “inhibit spores” for “inhibit spore”, “After 6” for “After 5”

Fusarium culmorum = Fusarium culmorum in vitro cell test; assay type: cell-based; settings: 96 h, 20 ppm of active ingredient, liquid culture, 4 days incubation, read-out: efficacy (inhibition of fungal growth)
Description: • Solvent: DMSO • Culture medium: 14.6 g anhydrous D-glucose (VWR), 7.1 g Mycological Peptone (Oxoid), 1.4 g granulated Yeast Extract (Merck), QSP 1 liter • Inoculum: spore suspension • Fungicides were solubilized in DMSO and the solution used to prepare the required range of concentrations. The final concentration of DMSO used in the assay was ≤1%.
A spore suspension of F. culmorum was prepared and diluted to the desired spore density.
Fungicides were evaluated for their ability to inhibit spore germination and mycelium growth in liquid culture assay. The compounds were added in the desired concentration to the culture medium with spores. After 4 days incubation, fungi-toxicity of compounds was determined by spectrometric measurement of mycelium growth. Inhibition of fungal growth was determined by comparing the absorbance values in wells containing the fungicides with the absorbance in control wells without fungicides.

Structure (SMILES) | pest or weed control at 500 ppm [1] [%] | inhibition at 20 ppm (Septoria tritici) [%] | inhibition at 20 ppm (Alternaria alternata) [%] | pest or weed control at 500 ppm (Sphaerotheca fuliginea) [%] | pest or weed control at 500 ppm (Botrytis cinerea) [%] | pest or weed control at 500 ppm (Alternaria brassicae) [%] | inhibition at 20 ppm (Pyricularia Oryzae) [%] | chromatographic logP [2] | pest or weed control at 500 ppm (Pyrenophora teres) [%] | inhibition at 20 ppm [3] [%] | inhibition at 20 ppm (Fusarium culmorum) [%]
Cc1cc(C)cc(CC2CON=C(c3cc(C)nnc3Oc3cccc(C)c3F)N2)c1 (racemic) [Compound I-008, (5RS)-5-(3,5-dimethylbenzyl)-3-[3-(2-fluoro-3-methylphenoxy)-6-methylpyridazin-4-yl]-5,6-dihydro-4H-1,2,4-oxadiazine] | 90 to 100 | 90 to 100 | 90 to 100 | 90 to 100 | 90 to 100 | 90 to 100 | 90 to 100 | 3.85 | 90 to 100 | 90 to 100 | 
Cc1ccc(C)c(CC2CON=C(c3cc(C)nnc3Oc3cccc(C)c3F)N2)c1 (racemic) [Compound I-013, (5RS)-5-(2,5-dimethylbenzyl)-3-[3-(2-fluoro-3-methylphenoxy)-6-methylpyridazin-4-yl]-5,6-dihydro-4H-1,2,4-oxadiazine] | 90 to 100 | 90 to 100 | 90 to 100 | 90 to 100 | 90 to 100 | 90 to 100 | 80 to 89 | 3.69 | 80 to 89 | 90 to 100 | 
Cc1ccc(CC2CON=C(c3cc(C)nnc3Oc3cccc(C4(F)CC4)c3)N2)c(C)c1 (racemic) [Compound I-015, (5RS)-5-(2,4-dimethylbenzyl)-3-{3-[3-(1-fluorocyclopropyl)phenoxy]-6-methylpyridazin-4-yl}-5,6-dihydro-4H-1,2,4-oxadiazine] | 90 to 100 |  | 90 to 100 | 90 to 100 | 90 to 100 | 90 to 100 | 90 to 100 | 3.78 | 90 to 100 | 90 to 100 | 80 to 89
C=C(OCC)c1cc(C2=NOCC(Cc3ccc(Cl)cc3Cl)N2)c(Oc2cccc(C3CC3)c2)nn1 (racemic) [Compound I-019, (5RS)-3-[3-(3-cyclopropylphenoxy)-6-(1-ethoxyvinyl)pyridazin-4-yl]-5-(2,4-dichlorobenzyl)-5,6-dihydro-4H-1,2,4-oxadiazine] | 90 to 100 |  | 90 to 100 | 90 to 100 | 90 to 100 | 90 to 100 | 90 to 100 | 5.19 | 90 to 100 | 90 to 100 | 70 to 79
C=C(OCC)c1cc(C2=NOCC(Cc3ccc(Cl)cc3Cl)N2)c(Oc2cccc(C3CC3)c2F)nn1 (racemic) [Compound I-020, (5RS)-3-[3-(3-cyclopropyl-2-fluorophenoxy)-6-(1-ethoxyvinyl)pyridazin-4-yl]-5-(2,4-dichlorobenzyl)-5,6-dihydro-4H-1,2,4-oxadiazine] | 90 to 100 | 90 to 100 | 90 to 100 | 90 to 100 | 90 to 100 | 90 to 100 | 90 to 100 | 5.41 | 90 to 100 | 90 to 100 | 
Cc1cc(C2=NOCC(Cc3ccc(Cl)cc3Cl)N2)c(Oc2cccc(C3(Cl)CC3)c2)nn1 (racemic) [Compound I-022, (5RS)-3-{3-[3-(1-chlorocyclopropyl)phenoxy]-6-methylpyridazin-4-yl}-5-(2,4-dichlorobenzyl)-5,6-dihydro-4H-1,2,4-oxadiazine] | 90 to 100 |  | 90 to 100 | 90 to 100 | 90 to 100 | 90 to 100 | 70 to 79 | 4.51 | 90 to 100 |  | 
Cc1ccc(CC2CON=C(c3cc(C(C)O)nnc3Oc3cccc(C4CC4)c3)N2)c(C)c1 (centres unmarked) [Compound I-016, 1-{6-(3-cyclopropylphenoxy)-5-[5-(2,4-dimethylbenzyl)-5,6-dihydro-4H-1,2,4-oxadiazin-3-yl]pyridazin-3-yl}ethanol] | 90 to 100 | 90 to 100 | 90 to 100 | 90 to 100 | 90 to 100 | 90 to 100 | 90 to 100 | 3.55 | 80 to 89 | 90 to 100 | 
